Assay results taken from PubChem BioAssay AID1845200 (Molecular Pharmacology Branch, DTP, NCI, 2023).

Tested on: ASPS-1 complex tumor spheroids, viability
Test: Anticancer human tumor ASPS-1 cell line growth inhibition;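 note: spheroids exposed to agents for 7 days after 3 days of growth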;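 for viability, T/C: 100% = DMSO vehicle treated spheroids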
Conditions: for IC50: curve of first compound; for viability, T/C: stronger effect = lower value
In short: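 Complex spheroids of malignant cells with endothelial cells and mesenchymal stem cells; agents alone or combined, from near clinical Cmax (or 10 microM if unknown) down in half-log steps, 0.25% DMSO final.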

[1] = second compound 1 µM, first compound 0.00949 µM
[2] = second compound 1 µM, first compound 0.03 µM
[3] = second compound 1 µM, first compound 0.0949 µM
[4] = second compound 1 µM, first compound 0.3 µM
[5] = second compound 1 µM, first compound 0.949 µM
[6] = second compound 1 µM, first compound 3 µM
[7] = second compound 3.16 µM, first compound 0.00949 µM
[8] = second compound 3.16 µM, first compound 0.03 µM
[9] = second compound 3.16 µM, first compound 0.0949 µM
[10] = second compound 3.16 µM, first compound 0.3 µM
[11] = second compound 3.16 µM, first compound 0.949 µM
[12] = second compound 3.16 µM, first compound 3 µM
[13] = second compound 10 µM, first compound 0.00949 µM
[14] = second compound 10 µM, first compound 0.03 µM
[15] = second compound 10 µM, first compound 0.0949 µM
[16] = second compound 10 µM, first compound 0.3 µM
[17] = second compound 10 µM, first compound 0.949 µM
[18] = second compound 10 µM, first compound 3 µM
[19] = second compound 31.6 µM, first compound 0.00949 µM
[20] = second compound 31.6 µM, first compound 0.03 µM
[21] = second compound 31.6 µM, first compound 0.0949 µM
[22] = second compound 31.6 µM, first compound 0.3 µM
[23] = second compound 31.6 µM, first compound 0.949 µM
[24] = second compound 31.6 µM, first compound 3 µM
[25] = second compound 100 µM, first compound 0.00949 µM
[26] = second compound 100 µM, first compound 0.03 µM
[27] = second compound 100 µM, first compound 0.0949 µM
[28] = second compound 100 µM, first compound 0.3 µM
[29] = second compound 100 µM, first compound 0.949 µM
[30] = second compound 100 µM, first compound 3 µM

In the case of `CNCc1ccc(-c2cc(-c3nc(-c4ccc(S(=O)(=O)C(C)C)cc4)cnc3N)on2)cc1` + Cn1nnc2c(C(N)=O)ncn2c1=O, the IC50 (second compound 1 µM) is reported as 0.565 µM, the IC50 (second compound 3.16 µM) is reported as 0.738 µM and the IC50 (second compound 10 µM) is reported as 0.259 µM. For the same compound, the IC50 (second compound 31.6 µM) was 0.292 µM, the IC50 (second compound 100 µM) was 0.184 µM and the viability, T/C [1] was 104%. For the same compound, the viability, T/C [2] was 104%, the viability, T/C [3] was 105% and the viability, T/C [4] was 72.5%. The viability, T/C [5] was 31.1%, the viability, T/C [6] was 7.06% and the viability, T/C [7] was 109%. It also gave a viability, T/C [8] of 106%, a viability, T/C [9] of 92.6% and a viability, T/C [10] of 69.3%. It also gave a viability, T/C [11] of 45.6%, a viability, T/C [12] of 9.69% and a viability, T/C [13] of 98.8%. For the same compound, the viability, T/C [14] was 103%, the viability, T/C [15] was 87% and the viability, T/C [16] was 40%. The viability, T/C [17] was 30.4%, the viability, T/C [18] was 6.72% and the viability, T/C [19] was 88.5%. It also gave a viability, T/C [20] of 78.9%, a viability, T/C [21] of 67.4% and a viability, T/C [22] of 48.7%. For the same compound, the viability, T/C [23] was 31.2%, the viability, T/C [24] was 12.9% and the viability, T/C [25] was 79.1%. It also gave a viability, T/C [26] of 78.4%, a viability, T/C [27] of 58.2% and a viability, T/C [28] of 41.6%. For the same compound, the viability, T/C [29] was 21.7% and the viability, T/C [30] was 1.51%.
`Cc1cc(C)c(CNC(=O)c2cc(-c3ccc(CN4CCOCC4)cc3)cc3c2cnn3C2CCCC2)c(=O)[nH]1` + Cn1nnc2c(C(N)=O)ncn2c1=O showed an IC50 (second compound 1 µM) greater than 10 µM, an IC50 (second compound 3.16 µM) greater than 10 µM and an IC50 (second compound 10 µM) greater than 10 µM. For the same compound, the IC50 (second compound 31.6 µM) was greater than 10 µM, the IC50 (second compound 100 µM) was greater than 10 µM and the viability, T/C (second compound 1 µM, first compound 0.0316 µM) was 94.8%. It also gave a viability, T/C (second compound 1 µM, first compound 0.1 µM) of 95.4%, a viability, T/C (second compound 1 µM, first compound 0.316 µM) of 94.8% and a viability, T/C (second compound 1 µM, first compound 1 µM) of 92.7%. For the same compound, the viability, T/C (second compound 1 µM, first compound 3.16 µM) was 93.2%, the viability, T/C (second compound 1 µM, first compound 10 µM) was 86.7% and the viability, T/C (second compound 3.16 µM, first compound 0.0316 µM) was 102%. For the same compound, the viability, T/C (second compound 3.16 µM, first compound 0.1 µM) was 98.1%, the viability, T/C (second compound 3.16 µM, first compound 0.316 µM) was 98.8% and the viability, T/C (second compound 3.16 µM, first compound 1 µM) was 99.6%. The viability, T/C (second compound 3.16 µM, first compound 3.16 µM) was 92%, the viability, T/C (second compound 3.16 µM, first compound 10 µM) was 91.2% and the viability, T/C (second compound 10 µM, first compound 0.0316 µM) was 86.3%. For the same compound, the viability, T/C (second compound 10 µM, first compound 0.1 µM) was 77.6%, the viability, T/C (second compound 10 µM, first compound 0.316 µM) was 88% and the viability, T/C (second compound 10 µM, first compound 1 µM) was 89.3%. The viability, T/C (second compound 10 µM, first compound 3.16 µM) was 82%, the viability, T/C (second compound 10 µM, first compound 10 µM) was 82% and the viability, T/C (second compound 31.6 µM, first compound 0.0316 µM) was 81.4%. The viability, T/C (second compound 31.6 µM, first compound 0.1 µM) was 83.7%, the viability, T/C (second compound 31.6 µM, first compound 0.316 µM) was 77.7% and the viability, T/C (second compound 31.6 µM, first compound 1 µM) was 87.3%. It also gave a viability, T/C (second compound 31.6 µM, first compound 3.16 µM) of 73.2%, a viability, T/C (second compound 31.6 µM, first compound 10 µM) of 69.8% and a viability, T/C (second compound 100 µM, first compound 0.0316 µM) of 69%. For the same compound, the viability, T/C (second compound 100 µM, first compound 0.1 µM) was 67.5%, the viability, T/C (second compound 100 µM, first compound 0.316 µM) was 73.4% and the viability, T/C (second compound 100 µM, first compound 1 µM) was 71.3%. It also gave a viability, T/C (second compound 100 µM, first compound 3.16 µM) of 61.3% and a viability, T/C (second compound 100 µM, first compound 10 µM) of 55.3%.
With `Cc1sc2c(c1C)C(c1ccc(Cl)cc1)=NC(CC(=O)Nc1ccc(O)cc1)c1nnc(C)n1-2` (stereo not given) + Cn1nnc2c(C(N)=O)ncn2c1=O the IC50 (second compound 1 µM) was greater than 3 µM, the IC50 (second compound 3.16 µM) was greater than 3 µM and the IC50 (second compound 10 µM) was greater than 3 µM. For the same compound, the IC50 (second compound 31.6 µM) was greater than 3 µM, the IC50 (second compound 100 µM) was greater than 3 µM and the viability, T/C [1] was 102%. For the same compound, the viability, T/C [2] was 110%, the viability, T/C [3] was 114% and the viability, T/C [4] was 99.4%. For the same compound, the viability, T/C [5] was 91.6%, the viability, T/C [6] was 88.6% and the viability, T/C [7] was 101%. For the same compound, the viability, T/C [8] was 108%, the viability, T/C [9] was 111% and the viability, T/C [10] was 96.7%. The viability, T/C [11] was 94.9%, the viability, T/C [12] was 89.9% and the viability, T/C [13] was 88.7%. It also gave a viability, T/C [14] of 99.6%, a viability, T/C [15] of 99.1% and a viability, T/C [16] of 100%. It also gave a viability, T/C [17] of 97.5%, a viability, T/C [18] of 83.9% and a viability, T/C [19] of 94.6%. It also gave a viability, T/C [20] of 92.3%, a viability, T/C [21] of 103% and a viability, T/C [22] of 95.6%. The viability, T/C [23] was 83.9%, the viability, T/C [24] was 80.3% and the viability, T/C [25] was 75.9%. The viability, T/C [26] was 82.6%, the viability, T/C [27] was 84.8% and the viability, T/C [28] was 79%. The viability, T/C [29] was 70.7% and the viability, T/C [30] was 61.2%.
